Experimental data taken from patent publication US11306056B2 (Cardioxyl Pharmaceuticals, Inc., priority 2006, dated 2022).
Where two headings read alike, the source gives them in different places.

Tests used:
[1] = system: ischemia/reperfusion injury; conditions: pre-ischemic administration; cited from earlier work
[2] = Decomposition kinetics (HNO release) monitored by UV-Vis spectroscopy; assay type: physicochemical; conditions: for half-life: pH 7.4, decomposition half-life, pH 7.4, 37° C., compounds 5, 7-10 not first-order, approximate half-lives; for kO2/kAr: ratio of oxygen-dependent to argon decomposition rate, 0.1 M PBS pH 7.4, 37° C.
Method: The decomposition rates of the compounds may be determined by UV-Vis spectroscopy.
The decomposition of compounds 1-4 and 6 from Example 1 was monitored by UV-Vis spectroscopy in 0.1 M PBS buffer at pH 7.4 and 37° C. The spectral behavior was isosbestic and the time course fit well to a single exponential. […] Decomposition kinetics for compounds 5, 7-10 of Example 1 are not first-order and thus only approximate half-lives are reported. Compounds with more than one number in a single column in the table below indicates the results of two experiments for the same compound.

[3] = system: myocardial ischemia/reperfusion injury; conditions: anesthetized rabbits, given during ischemia and 5 minutes prior to reperfusion; cited from earlier work
rat renal tissue = conditions: rat kidney, given during ischemia and 5 minutes before reperfusion; cited from earlier work
[4] = aerated 0.1 M PBS buffer, aerated 0.1 M PBS buffer, read-out: t1/2 (air)
[5] = argon-saturated 0.1 M PBS buffer, argon-saturated 0.1 M PBS buffer, read-out: t1/2 (Ar)

SMILES | effect on ischemia/reperfusion injury [1] | melting point | half-life [2, 4] [min] | half-life [2, 5] [min] | kO2/kAr [2] | effect on myocardial ischemia/reperfusion injury [3] | neutrophil infiltration into renal tissue (rat renal tissue)
CC(C)N[N+]([O-])=N[O-].[Na+] [isopropylamine/NO] | prevent or reduce ischemia/reperfusion injury |  |  |  |  |  | 
O=S(=O)(NO)c1ccccc1C(F)(F)F [Compound 4, 2-(Trifluoromethyl)-N-hydroxybenzenesulfonamide] |  | 124 to 127 °C (dec.) | 0.55 | 0.96 | 0.75 |  | 
O=S(=O)(NO)c1ccc(C(F)(F)F)cc1 [Compound 8, 4-(Trifluoromethyl)-N-hydroxybenzenesulfonamide] |  | 117 to 121 °C (dec.) | 7 | 33 |  |  | 
N#Cc1ccc(S(=O)(=O)NO)cc1 [Compound 9, 4-Cyano-N-hydroxybenzenesulfonamide] |  | 151 to 155 °C (dec.) | 4 | 17.8 |  |  | 
O=S(=O)(NO)c1ccccc1Br [Compound 3, 2-Bromo-N-hydroxybenzenesulfonamide] |  | 156 to 159 °C (dec.) | 0.68 | 1.05 | 0.55 |  | 
O=[N+]([O-])c1ccc(S(=O)(=O)NO)cc1 [Compound 10, 4-Nitro-N-hydroxybenzenesulfonamide] |  |  | 3.3 |  |  |  | 
O=S(=O)(NO)c1ccccc1F [Compound 1, 2-Fluoro-N-hydroxybenzenesulfonamide] |  | 127 to 129 °C | 2.67 | 17.5 | 5.82 |  | 
O=S(=O)(NO)c1ccc(F)cc1 [Compound 7, 4-Fluoro-N-hydroxybenzenesulfonamide] |  |  | 10 | 72.1 |  |  | 
[Na+].[Na+].[O-][N+]([O-])=NO [AS, sodium dioxotrinitrate] | prevent or reduce ischemia/reperfusion injury |  |  |  |  | increased myocardial ischemia/reperfusion injury | contributed to neutrophil infiltration into the tissue
O=S(=O)(NO)c1ccccc1Cl [Compound 2, 2-Chloro-N-hydroxybenzenesulfonamide] |  | 152 to 155 °C (dec.) | 1.75 | 3.61 | 1.06 |  | 
O=S(=O)(NO)c1cc(Cl)sc1Cl [Compound 6, 2,5-Dichlorothiophene-3-sulfohydroxamic acid] |  |  |  |  | 2.52 |  | 
